Columns and labels:
Assay in all cases: automated planar patch-clamp, whole-cell peak current
Format in all cases: cell-based
[1] = target: T1, NaV1.2 (Homo sapiens, UniProt Q99250); conditions: holding -80 mV, 200 ms at -120 mV then test pulse to 0 mV every 2 s; 5 min exposure, cumulative 0.1-100 μM; 0.1% DMSO; pH 7.4; 27°C; n=6
T1 construct: gene SCN2A; full-length channel, stably expressed in HEK293T cells; splice form and beta subunits not mentioned
From the text: automated planar patch-clamp, whole-cell peak current on NaV1.2

[2] = target: T2, NaV1.1 (Homo sapiens, UniProt P35498); conditions: holding -80 mV, 200 ms at -120 mV then test pulse to 0 mV every 2 s; 5 min exposure, cumulative 0.1-100 μM; 0.1% DMSO; pH 7.4; 27°C; n=9
T2 construct: gene SCN1A; full-length channel, stably expressed in HEK293T cells; beta subunits not mentioned
From the text: automated planar patch-clamp, whole-cell peak current on NaV1.1

[3] = target: T3, NaV1.7 (Homo sapiens, UniProt Q15858); conditions: holding -80 mV, 200 ms at -120 mV then test pulse to 0 mV every 2 s; 5 min exposure, cumulative 0.1-100 μM; 0.1% DMSO; pH 7.4; 27°C; n=7
T3 construct: gene SCN9A; full-length channel, stably expressed in HEK293T cells; beta subunits not mentioned
T3 sequence (Q15858 whole entry): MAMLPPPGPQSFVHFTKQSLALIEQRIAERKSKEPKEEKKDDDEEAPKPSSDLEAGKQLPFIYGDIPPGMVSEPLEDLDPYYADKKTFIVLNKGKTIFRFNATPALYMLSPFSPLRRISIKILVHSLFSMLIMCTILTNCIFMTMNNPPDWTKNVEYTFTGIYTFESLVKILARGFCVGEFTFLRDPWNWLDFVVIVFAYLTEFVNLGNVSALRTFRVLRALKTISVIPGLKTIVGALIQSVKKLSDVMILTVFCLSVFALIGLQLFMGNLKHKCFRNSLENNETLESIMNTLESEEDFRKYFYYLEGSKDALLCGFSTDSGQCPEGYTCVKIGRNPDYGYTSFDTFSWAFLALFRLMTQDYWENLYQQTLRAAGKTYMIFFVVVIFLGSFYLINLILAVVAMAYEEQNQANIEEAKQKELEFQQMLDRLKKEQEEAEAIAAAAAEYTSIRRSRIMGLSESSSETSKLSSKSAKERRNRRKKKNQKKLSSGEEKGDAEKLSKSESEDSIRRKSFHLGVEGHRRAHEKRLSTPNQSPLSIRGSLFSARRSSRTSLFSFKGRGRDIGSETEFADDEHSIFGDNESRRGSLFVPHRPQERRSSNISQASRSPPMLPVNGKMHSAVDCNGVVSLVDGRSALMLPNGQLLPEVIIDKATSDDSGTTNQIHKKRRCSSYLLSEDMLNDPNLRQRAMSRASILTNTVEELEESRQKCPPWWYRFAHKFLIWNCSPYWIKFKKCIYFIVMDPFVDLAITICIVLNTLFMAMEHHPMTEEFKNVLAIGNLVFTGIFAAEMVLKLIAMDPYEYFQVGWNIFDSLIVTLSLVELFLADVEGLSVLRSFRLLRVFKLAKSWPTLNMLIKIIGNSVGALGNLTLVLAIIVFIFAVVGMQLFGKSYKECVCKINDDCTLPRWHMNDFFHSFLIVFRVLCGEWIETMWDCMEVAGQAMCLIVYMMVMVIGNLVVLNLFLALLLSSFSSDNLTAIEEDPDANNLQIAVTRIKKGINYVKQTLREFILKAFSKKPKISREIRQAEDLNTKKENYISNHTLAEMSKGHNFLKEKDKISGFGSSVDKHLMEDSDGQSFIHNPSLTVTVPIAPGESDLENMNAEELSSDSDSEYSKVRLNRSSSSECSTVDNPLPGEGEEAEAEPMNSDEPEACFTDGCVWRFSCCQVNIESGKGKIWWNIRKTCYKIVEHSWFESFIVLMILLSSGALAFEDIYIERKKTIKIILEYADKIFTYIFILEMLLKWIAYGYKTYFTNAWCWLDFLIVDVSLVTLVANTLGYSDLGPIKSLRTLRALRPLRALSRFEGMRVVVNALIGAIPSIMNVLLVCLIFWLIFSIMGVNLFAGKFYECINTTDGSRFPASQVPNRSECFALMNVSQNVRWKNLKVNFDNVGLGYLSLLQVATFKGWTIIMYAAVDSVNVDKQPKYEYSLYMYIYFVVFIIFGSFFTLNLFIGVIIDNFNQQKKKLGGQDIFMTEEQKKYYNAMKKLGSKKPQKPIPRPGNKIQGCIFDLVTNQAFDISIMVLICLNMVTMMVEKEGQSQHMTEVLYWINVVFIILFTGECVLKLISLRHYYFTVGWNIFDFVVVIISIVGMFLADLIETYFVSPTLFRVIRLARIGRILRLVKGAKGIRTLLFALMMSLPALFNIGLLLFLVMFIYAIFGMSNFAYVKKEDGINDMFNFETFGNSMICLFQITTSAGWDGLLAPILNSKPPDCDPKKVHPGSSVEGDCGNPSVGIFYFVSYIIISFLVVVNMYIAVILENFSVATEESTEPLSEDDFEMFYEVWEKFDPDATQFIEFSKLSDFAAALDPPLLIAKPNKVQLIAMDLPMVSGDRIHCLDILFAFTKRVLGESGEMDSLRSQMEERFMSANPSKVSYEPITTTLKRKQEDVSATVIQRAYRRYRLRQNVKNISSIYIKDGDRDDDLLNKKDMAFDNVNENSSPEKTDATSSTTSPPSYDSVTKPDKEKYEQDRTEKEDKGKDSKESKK
From the text: automated planar patch-clamp, whole-cell peak current on NaV1.7

T1 sequence (Q99250 whole entry, canonical isoform): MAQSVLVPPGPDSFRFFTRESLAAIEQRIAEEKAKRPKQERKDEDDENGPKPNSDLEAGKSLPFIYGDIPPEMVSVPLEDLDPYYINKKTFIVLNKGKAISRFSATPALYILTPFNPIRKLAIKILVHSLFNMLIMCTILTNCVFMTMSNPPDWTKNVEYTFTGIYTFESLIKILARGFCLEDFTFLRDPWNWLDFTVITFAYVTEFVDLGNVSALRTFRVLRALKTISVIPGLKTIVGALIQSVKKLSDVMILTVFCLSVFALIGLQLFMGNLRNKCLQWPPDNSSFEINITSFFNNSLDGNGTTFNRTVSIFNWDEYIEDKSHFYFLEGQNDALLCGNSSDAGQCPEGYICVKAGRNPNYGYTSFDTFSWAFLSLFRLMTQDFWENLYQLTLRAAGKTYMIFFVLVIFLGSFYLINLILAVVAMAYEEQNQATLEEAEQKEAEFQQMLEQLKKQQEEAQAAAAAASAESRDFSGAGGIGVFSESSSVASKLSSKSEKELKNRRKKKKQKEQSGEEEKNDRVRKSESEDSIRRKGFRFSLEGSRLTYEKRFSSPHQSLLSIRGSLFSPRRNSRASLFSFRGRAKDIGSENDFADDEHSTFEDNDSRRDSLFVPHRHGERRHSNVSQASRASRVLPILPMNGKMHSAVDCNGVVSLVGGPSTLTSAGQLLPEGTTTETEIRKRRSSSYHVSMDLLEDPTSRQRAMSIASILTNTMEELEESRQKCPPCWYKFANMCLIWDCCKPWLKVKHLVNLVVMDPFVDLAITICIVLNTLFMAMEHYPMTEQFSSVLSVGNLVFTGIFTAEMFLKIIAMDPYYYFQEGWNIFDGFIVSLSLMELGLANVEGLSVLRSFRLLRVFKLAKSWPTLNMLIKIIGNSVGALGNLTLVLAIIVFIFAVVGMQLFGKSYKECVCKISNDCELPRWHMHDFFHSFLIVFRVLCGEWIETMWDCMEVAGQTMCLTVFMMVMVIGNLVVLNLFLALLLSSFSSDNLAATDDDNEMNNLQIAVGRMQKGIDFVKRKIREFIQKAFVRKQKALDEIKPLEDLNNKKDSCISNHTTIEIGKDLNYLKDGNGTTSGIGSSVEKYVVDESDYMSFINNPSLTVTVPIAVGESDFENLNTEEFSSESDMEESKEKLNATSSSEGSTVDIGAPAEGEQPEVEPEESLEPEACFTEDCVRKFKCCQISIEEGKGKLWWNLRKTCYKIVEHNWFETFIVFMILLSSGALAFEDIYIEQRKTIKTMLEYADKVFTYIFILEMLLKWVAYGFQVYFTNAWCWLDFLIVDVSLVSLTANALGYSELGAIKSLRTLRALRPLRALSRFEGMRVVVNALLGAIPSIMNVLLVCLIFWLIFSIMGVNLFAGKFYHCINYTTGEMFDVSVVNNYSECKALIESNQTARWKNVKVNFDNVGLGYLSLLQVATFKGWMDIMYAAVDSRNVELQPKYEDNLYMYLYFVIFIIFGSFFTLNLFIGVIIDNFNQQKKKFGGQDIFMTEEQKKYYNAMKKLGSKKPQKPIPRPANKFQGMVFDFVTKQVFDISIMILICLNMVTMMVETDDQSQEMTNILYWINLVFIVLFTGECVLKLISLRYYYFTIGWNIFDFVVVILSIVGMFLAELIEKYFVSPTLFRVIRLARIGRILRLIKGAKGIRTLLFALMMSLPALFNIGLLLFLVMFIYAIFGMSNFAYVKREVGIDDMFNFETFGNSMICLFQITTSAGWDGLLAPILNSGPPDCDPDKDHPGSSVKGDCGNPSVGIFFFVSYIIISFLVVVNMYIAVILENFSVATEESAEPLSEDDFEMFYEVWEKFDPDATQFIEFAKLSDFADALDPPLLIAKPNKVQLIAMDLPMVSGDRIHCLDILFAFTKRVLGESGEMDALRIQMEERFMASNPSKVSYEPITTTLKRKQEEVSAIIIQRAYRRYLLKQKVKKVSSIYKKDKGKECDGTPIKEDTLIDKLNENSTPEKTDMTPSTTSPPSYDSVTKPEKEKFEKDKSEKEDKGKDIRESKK

`C=C(C)[C@@H]1CCC(C)=C[C@H]1c1c(O)cc(CCCCC)cc1O` [CBD] was tested, and the IC50 [1] was 18.4 ± 2.6 µM, the IC50 [2] was 18.5 ± 2.2 µM and the IC50 [3] was 11.9 ± 2.2 µM.
